# Laboratory results published in patent US9278981B2, “Compounds and compositions for inhibiting the activity of ABL1, ABL2 and BCR-ABL1” (Novartis AG, priority 2012, dated 2016).
# Assays:
# ABL1 (64-515) [1] = target: T1, ABL1 (64-515) (Homo sapiens (Human), UniProt P00519); assay: Caliper ABL1 (64-515) assay (microfluidic mobility shift); assay type: biochemical
# Description: Expression and purification of human ABL was performed using standard expression purification procedures. […] The His-ABL was expressed in E. coli BL21 (DE3) and the ABL proteins were isolated by Ni-affinity on a Ni-NTA column (Qiagen). The His-tag was removed by PreScission protease (GE Healthcare) and the non-phosphoprylated ABL further purified on a Mono Q HR 10/10 (GE Healthcare, mono-phosphorylated ABL is about 10-20% of total ABL protein) and HiLoad 16/60 Superdex 200 size exclusion column (GE Healthcare).
# All assays were performed in 384-well microtiter plates. Each assay plate contained 8-point serial dilutions for 40 test compounds, as well as four 8-point serial dilutions of staurosporine as a reference compound, plus 16 high and 16 low controls. Liquid handling and incubation steps were done on a Thermo CatX workstation equipped with Innovadyne Nanodrop Express. Between pipetting steps, tips were cleaned in wash cycles using wash buffer.
# The assay plates were prepared by addition of 50 nL per well of compound solution in 90% DMSO. […] Plates with terminated kinase reactions were transferred to the Caliper LC3000 workstations for reading. Phosphorylated and unphosphorylated peptides were separated using the Caliper microfluidic mobility shift technology. Briefly, samples from terminated kinase reactions were applied to the chip. Analytes are transported through the chip by constant buffer flow and the migration of the substrate peptide is monitored by the fluorescence signal of its label. Phosphorylated peptide (product) and unphosphorylated peptide (substrate) are separated in an electric field by their charge/mass ratio. Kinase activities were calculated from the amounts of formed phospho-peptide. IC50 values were determined from percent inhibition values at different compound concentrations by non-linear regression analysis.
# Test compounds were dissolved in DMSO (10 mM) and transferred into 1.4 mL flat bottom or V-shaped Matrix tubes carrying a unique 2D matrix. The stock solutions were stored at +2° C. if not used immediately. For the test procedure the vials were defrosted and identified by a scanner whereby a working sheet was generated that guided the subsequent working steps.
# Compound dilutions were made in 96-well plates. This format enabled the assay of maximally 40 individual test compounds at 8 concentrations (single points) including 4 reference compounds. The dilution protocol included the production of “pre-dilution plates”, “master plates” and “assay plates”.
# Polypropylene 96-well plates were used as pre-dilution plates. […] All dilution steps were done on a HamiltonSTAR robot.
# These plates were used directly for the assay which was performed in a total volume of 9.05 μL.
# ABL1 (64-515) [2] = target: T1, ABL1 (64-515); assay: Radio ABL1 (64-515) assay (radiometric filter-binding); assay type: biochemical
# T1 sequence (P00519 64-515): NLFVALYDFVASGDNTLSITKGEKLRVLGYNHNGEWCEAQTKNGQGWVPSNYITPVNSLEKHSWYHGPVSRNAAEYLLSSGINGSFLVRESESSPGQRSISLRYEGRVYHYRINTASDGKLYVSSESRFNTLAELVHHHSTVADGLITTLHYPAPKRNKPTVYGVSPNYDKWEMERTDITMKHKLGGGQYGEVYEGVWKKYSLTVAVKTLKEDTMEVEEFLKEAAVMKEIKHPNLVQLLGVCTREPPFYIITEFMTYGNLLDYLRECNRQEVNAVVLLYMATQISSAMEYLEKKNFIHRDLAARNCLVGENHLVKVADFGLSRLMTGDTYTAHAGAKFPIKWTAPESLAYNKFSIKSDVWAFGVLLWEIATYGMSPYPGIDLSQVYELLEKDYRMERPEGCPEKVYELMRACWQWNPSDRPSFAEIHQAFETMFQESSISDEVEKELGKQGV
SMILES,IC50 (ABL1 (64-515) [1]),IC50 (ABL1 (64-515) [2])
"O=C(Nc1ccc(C(F)(F)C(F)(F)F)cc1)c1cnc(N2CC[C@@H](O)C2)c(-c2cncc(F)c2)c1 [Example 209, (R)-5′-Fluoro-2-(3-hydroxypyrrolidin-1-yl)-N-(4-(perfluoroethyl)phenyl)-[3,3′-bipyridine]-5-carboxamide]",0.5 nM,< 3 nM
"Cc1ccc(-c2cc(C(=O)Nc3ccc(OC(F)(F)F)cc3)cnc2N2CC[C@H](O)C2)cn1 [Example 34, (S)-2-(3-Hydroxypyrrolidin-1-yl)-6′-methyl-N-(4-(trifluoromethoxy)phenyl)-[3,3′-bipyridine]-5-carboxamide]",0.8 nM,< 3 nM
"O=C(Nc1ccc(OC(F)(F)F)c(Cl)c1)c1cnc(N2CC[C@@H](O)C2)c(-c2cncnc2)c1 [Example 204, (R)—N-(3-Chloro-4-(trifluoromethoxy)phenyl)-6-(3-hydroxypyrrolidin-1-yl)-5-(pyrimidin-5-yl)nicotinamide]",4.3 nM,< 3 nM
"O=C(Nc1ccc(OC(F)(F)F)cc1)c1cnc(N2CC[C@H](CO)C2)c(-c2ccc(Cl)nc2)c1 [Example 88, (S)-6′-Chloro-2-(3-(hydroxymethyl)pyrrolidin-1-yl)-N-(4-(trifluoromethoxy)phenyl)-[3,3′-bipyridine]-5-carboxamide]",< 0.13 nM,4 nM
O=C(Nc1ccc(OC(F)(F)Cl)cc1)c1cnc(N2Cc3cn[nH]c3C2)c(-c2cncnc2)c1 [Example 254],0.6 nM,< 0.1 nM
"N#Cc1cncc(-c2cc(C(=O)Nc3ccc(OC(F)(F)F)cc3)cnc2N2CC[C@H](CO)C2)c1 [Example 90, (S)-5′-Cyano-2-(3-(hydroxymethyl)pyrrolidin-1-yl)-N-(4-(trifluoromethoxy)phenyl)-[3,3′-bipyridine]-5-carboxamide]",0.7 nM,< 3 nM
"O=C(Nc1ccc(OC(F)(F)F)cc1)c1cnc(N2CC[C@@H](O)C2)c(-c2ccc(F)nc2)c1 [Example 47, (R)-6′-Fluoro-2-(3-hydroxypyrrolidin-1-yl)-N-(4-(trifluoromethoxy)phenyl)-[3,3′-bipyridine]-5-carboxamide]",1.2 nM,3 nM
"N#Cc1cncc(-c2cc(C(=O)Nc3ccc(OC(F)(F)F)c(F)c3)cnc2N2CC[C@@H](O)C2)c1 [Example 200, (R)-5′-Cyano-N-(3-fluoro-4-(trifluoromethoxy)phenyl)-2-(3-hydroxypyrrolidin-1-yl)-[3,3′-bipyridine]-5-carboxamide]",1.2 nM,4 nM
"O=C(Nc1ccc(OC(F)(F)F)cc1)c1ccc(N2C[C@H](O)[C@@H](O)C2)c(-c2cncnc2)c1 [Example 7, 4-((3S,4S)-3,4-Dihydroxypyrrolidin-1-yl)-3-(pyrimidin-5-yl)-N-(4-(trifluoromethoxy)phenyl)benzamide]",1.2 nM,< 3 nM
N#Cc1ccncc1-c1cc(C(=O)Nc2ccc(OC(F)(F)Cl)cc2)cnc1N1CC[C@@H](O)C1 [Example 274],0.4 nM,< 0.1 nM
"O=C(Nc1ccc(SC(F)(F)Cl)cc1)c1cnc(N2CC[C@@H](O)C2)c(-c2cncnc2)c1 [Example 217, (R)—N-(4-((Chlorodifluoromethyl)thio)phenyl)-6-(3-hydroxypyrrolidin-1-yl)-5-(pyrimidin-5-yl)nicotinamide]",0.4 nM,2 nM
"CO[C@H]1CN(c2ncc(C(=O)Nc3ccc(OC(F)(F)F)cc3)cc2-c2cncc(F)c2)C[C@@H]1N (relative stereo) [Example 286, 2-(trans-3-Amino-4-methoxypyrrolidin-1-yl)-5′-fluoro-N-(4-(trifluoromethoxy)phenyl)-[3,3′-bipyridine]-5-carboxamide]",1.7 nM,2 nM
"CN(CCO)c1ncc(C(=O)Nc2ccc(OC(F)(F)Cl)cc2)cc1-c1cncc(F)c1 [Example 180, N-(4-(Chlorodifluoromethoxy)phenyl)-5′-fluoro-2-((2-hydroxyethyl)(methyl)amino)-[3,3′-bipyridine]-5-carboxamide]",0.4 nM,1 nM
"O=C(Nc1ccc(SC(F)(F)F)nc1)c1cnc(N2CC[C@@H](O)C2)c(-c2cncnc2)c1 [Example 279, (R)-6-(3-Hydroxypyrrolidin-1-yl)-5-(pyrimidin-5-yl)-N-(6-((trifluoromethyl)thio)pyridin-3-yl)nicotinamide]",8 nM,3 nM
"CC(C)(O)C1CN(c2ncc(C(=O)Nc3ccc(OC(F)(F)F)cc3)cc2-c2cccnc2)C1 [Example 143, 2-(3-(2-Hydroxypropan-2-yl)azetidin-1-yl)-N-(4-(trifluoromethoxy)phenyl)-[3,3′-bipyridine]-5-carboxamide]",1.1 nM,4 nM
N[C@@H]1[C@H]2CN(c3ncc(C(=O)Nc4ccc(OC(F)(F)F)cc4)cc3-c3cncnc3)C[C@@H]12 [Example 227],1.6 nM,0.9 nM
"Cc1ccc(-c2cc(C(=O)Nc3ccc(OC(F)(F)F)cc3)cnc2N2CC[C@@H](CO)C2)cn1 [Example 77, (R)-2-(3-(hydroxymethyl)pyrrolidin-1-yl)-6′-methyl-N-(4-(trifluoromethoxy)phenyl)-[3,3′-bipyridine]-5-carboxamide]",0.9 nM,3 nM

SMILES,IC50 (ABL1 (64-515) [1]),IC50 (ABL1 (64-515) [2])
"CN(C)[C@H]1CN(c2ncc(C(=O)Nc3ccc(OC(F)(F)F)cc3)cc2-c2cncc(F)c2)C[C@@H]1O [Example 236, 2-((3S,4S)-3-(Dimethylamino)-4-hydroxypyrrolidin-1-yl)-5′-fluoro-N-(4-(trifluoromethoxy)phenyl)-[3,3′-bipyridine]-5-carboxamide]",1.4 nM,3 nM
O=C(Nc1ccc(OC(F)(F)Cl)cc1)c1cnc(N2C[C@H](O)[C@@H](O)C2)c(-c2cncc(F)c2)c1 [Example 265],< 0.13 nM,3 nM
"O=C(Nc1ccc(SC(F)(F)F)c(F)c1)c1cnc(N2CC[C@@H](O)C2)c(-c2cncc(F)c2)c1 [Example 206, (R)-5′-Fluoro-N-(3-fluoro-4-((trifluoromethyl)thio)phenyl)-2-(3-hydroxypyrrolidin-1-yl)-[3,3′-bipyridine]-5-carboxamide]",0.5 nM,6 nM
"CCN(CCO)c1ncc(C(=O)Nc2ccc(OC(F)(F)F)cc2)cc1-c1cncc(F)c1 [Example 157, 2-(Ethyl(2-hydroxyethyl)amino)-5′-fluoro-N-(4-(trifluoromethoxy)phenyl)-[3,3′-bipyridine]-5-carboxamide]",2 nM,< 3 nM
"Cc1ncc(-c2cc(C(=O)Nc3ccc(OC(F)(F)F)cc3)cnc2N2CC(CO)C2)cc1F [Example 140, 5′-Fluoro-2-(3-(hydroxymethyl)azetidin-1-yl)-6′-methyl-N-(4-(trifluoromethoxy)phenyl)-[3,3′-bipyridine]-5-carboxamide]",0.4 nM,4 nM
"O=C(Nc1ccc(OC(F)(F)F)cc1)c1ccc(N2C[C@H](O)[C@@H](O)C2)c(-c2cccnc2)c1 [Example 8, 4-((3S,4S)-3,4-Dihydroxypyrrolidin-1-yl)-3-(pyridin-3-yl)-N-(4-(trifluoromethoxy)phenyl)benzamide]",2.8 nM,13 nM
"O=C(Nc1ccc(OC(F)(F)F)cc1)c1cnc(N2CCOCC2)c(-c2cncnc2)c1 [Example 148, 6-Morpholino-5-(pyrimidin-5-yl)-N-(4-(trifluoromethoxy)phenyl)nicotinamide]",2.5 nM,3 nM
"CC(C)(O)C1CCN(c2ncc(C(=O)Nc3ccc(OC(F)(F)F)cc3)cc2-c2cncnc2)C1 (centres unmarked) [Example 113, 6-(3-(2-Hydroxypropan-2-yl)pyrrolidin-1-yl)-5-(pyrimidin-5-yl)-N-(4-(trifluoromethoxy)phenyl)nicotinamide]",1.5 nM,< 3 nM
"CCN(CCO)c1ncc(C(=O)Nc2ccc(OC(F)(F)F)cc2)cc1-c1cncnc1 [Example 156, 6-(Ethyl(2-hydroxyethyl)amino)-5-(pyrimidin-5-yl)-N-(4-(trifluoromethoxy)phenyl)nicotinamide]",1.7 nM,5 nM
"CCN(CCO)c1ncc(C(=O)Nc2ccc(OC(F)(F)Cl)cc2)cc1-c1cncc(C#N)c1 [Example 184, N-(4-(Chlorodifluoromethoxy)phenyl)-5′-cyano-2-(ethyl(2-hydroxyethyl)amino)-[3,3′-bipyridine]-5-carboxamide]",0.8 nM,6 nM
"O=C(Nc1ccc(OC(F)(F)Cl)cc1)c1cnc(N2CCC(F)(F)C2)c(-c2cncnc2)c1 [Example 247, N-(4-(Chlorodifluoromethoxy)phenyl)-6-(3,3-difluoropyrrolidin-1-yl)-5-(pyrimidin-5-yl)nicotinamide]",< 0.13 nM,1.9 nM
"O=C(Nc1ccc(OC(F)(F)F)cc1)c1ccc(N2C[C@@H](O)[C@@H](O)C2)c(-c2cncnc2)c1 [Example 10, 4-(cis-3,4-Dihydroxypyrrolidin-1-yl)-3-(pyrimidin-5-yl)-N-(4-(trifluoromethoxy)phenyl)benzamide]",2.2 nM,3 nM
Cc1ncncc1-c1cc(C(=O)Nc2ccc(OC(F)(F)Cl)cc2)cnc1N1CC[C@@H](O)C1 [Example 263],< 0.13 nM,3 nM
"O=C(Nc1ccc(OC(F)(F)F)cc1)c1cnc(N2C[C@@H](O)[C@@H](O)C2)c(-c2cncc(F)c2)c1 [Example 235, 2-(cis-3,4-Dihydroxypyrrolidin-1-yl)-5′-fluoro-N-(4-(trifluoromethoxy)phenyl)-[3,3′-bipyridine]-5-carboxamide]",1.8 nM,2 nM
"Cc1ccc(-c2cc(C(=O)Nc3ccc(OC(F)(F)F)cc3)cnc2N2CC(O)C2)cn1 [Example 127, 2-(3-Hydroxyazetidin-1-yl)-6′-methyl-N-(4-(trifluoromethoxy)phenyl)-[3,3′-bipyridine]-5-carboxamide]",1.1 nM,4 nM
Cc1ncc(-c2cc(C(=O)Nc3ccc(OC(F)(F)Cl)cc3)cnc2N2C[C@H](O)[C@@H](O)C2)cn1 [Example 262],0.7 nM,2 nM
"O=C(Nc1ccc(OC(F)(F)F)cc1)c1cnc(N2CC[C@@H](O)C2)c(-c2cccnc2)c1 [Example 39, (R)-2-(3-Hydroxypyrrolidin-1-yl)-N-(4-(trifluoromethoxy)phenyl)-[3,3′-bipyridine]-5-carboxamide]",0.6 nM,< 3 nM
